#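 Where inhibition never reached the appropriate level, the endpoint shown equals the highest concentration tested. Otherwise, values were interpolated linearly from a five-concentration, 48-hour dose response in 96-well plates. Abbreviation: GI50, concentration required for 50% inhibition of growth.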 Activity calls are given as the source filed them. Rule as the data show it: active = GI50 up to about 1.1 µM and inactive = higher.
# Columns and labels:
# Experiment in all cases: growth of human tumour cells (NCI), 48 h
# 786-0 = tested on: 786-0
# A549 = tested on: A549
# ACHN = tested on: ACHN
# BT-549 = tested on: BT-549
# CAKI-1 = tested on: CAKI-1
# CCRF-CEM = tested on: CCRF-CEM
# COLO 205 = tested on: COLO 205
# DU-145 = tested on: DU-145
# EKVX = tested on: EKVX
# HCT-116 = tested on: HCT-116
# HCT-15 = tested on: HCT-15
# HL-60 = tested on: HL-60
# HOP-62 = tested on: HOP-62
# HT-29 = tested on: HT-29
# Hs-578T = tested on: Hs-578T
# IGROV-1 = tested on: IGROV-1
# K562 = tested on: K562
# KM12 = tested on: KM12
# LOX IMVI = tested on: LOX IMVI
# M14 = tested on: M14
# MCF7 = tested on: MCF7
# MDA-MB-435 = tested on: MDA-MB-435
# MDA-N = tested on: MDA-N
# MOLT-4 = tested on: MOLT-4
# Malme-3M = tested on: Malme-3M
# NCI-H226 = tested on: NCI-H226
# NCI-H23 = tested on: NCI-H23
# NCI-H460 = tested on: NCI-H460
# NCI-H522 = tested on: NCI-H522
# NCI/ADR-RES = tested on: NCI/ADR-RES
# OVCAR-3 = tested on: OVCAR-3
# OVCAR-4 = tested on: OVCAR-4
# OVCAR-5 = tested on: OVCAR-5
# OVCAR-8 = tested on: OVCAR-8
# PC-3 = tested on: PC-3
# RPMI-8226 = tested on: RPMI-8226
# SF-268 = tested on: SF-268
# SF-295 = tested on: SF-295
# SK-MEL-28 = tested on: SK-MEL-28
# SK-MEL-2 = tested on: SK-MEL-2
# SK-MEL-5 = tested on: SK-MEL-5
# SK-OV-3 = tested on: SK-OV-3
# SN12C = tested on: SN12C
# SNB-19 = tested on: SNB-19
# SNB-75 = tested on: SNB-75
# SR = tested on: SR
# SW-620 = tested on: SW-620
# TK-10 = tested on: TK-10
# U-251 = tested on: U-251
# UACC-257 = tested on: UACC-257
# UACC-62 = tested on: UACC-62
# UO-31 = tested on: UO-31
# A498 = tested on: A498
# HOP-92 = tested on: HOP-92
# RXF 393 = tested on: RXF 393
# SF-539 = tested on: SF-539
# T47D = tested on: T47D
# HCC 2998 = tested on: HCC 2998
# MDA-MB-231 = tested on: MDA-MB-231
compound,measurement,setting,value
O=c1c(-c2ccccc2)c(SCCO)n(-c2ccccc2)c(=S)n1-c1ccccc1,GI50,786-0,> 100 µM (inactive)
same,GI50,A549,> 100 µM (inactive)
same,GI50,ACHN,> 100 µM (inactive)
same,GI50,BT-549,> 100 µM (inactive)
same,GI50,CAKI-1,> 100 µM (inactive)
same,GI50,CCRF-CEM,> 100 µM (inactive)
same,GI50,COLO 205,> 100 µM (inactive)
same,GI50,DU-145,> 100 µM (inactive)
same,GI50,EKVX,> 100 µM (inactive)
same,GI50,HCT-116,> 100 µM (inactive)
same,GI50,HCT-15,> 100 µM
same,GI50,HL-60,> 100 µM (inactive)
same,GI50,HOP-62,> 100 µM (inactive)
same,GI50,HT-29,> 100 µM (inactive)
same,GI50,Hs-578T,99.5 µM (inactive)
same,GI50,IGROV-1,> 100 µM (inactive)
same,GI50,K562,> 100 µM (inactive)
same,GI50,KM12,> 100 µM (inactive)
same,GI50,LOX IMVI,> 100 µM (inactive)
same,GI50,M14,> 100 µM (inactive)
same,GI50,MCF7,> 100 µM (inactive)
same,GI50,MDA-MB-435,> 100 µM (inactive)
same,GI50,MDA-N,> 100 µM (inactive)
same,GI50,MOLT-4,> 100 µM (inactive)
same,GI50,Malme-3M,> 100 µM (inactive)
same,GI50,NCI-H226,> 100 µM (inactive)
same,GI50,NCI-H23,> 100 µM (inactive)
same,GI50,NCI-H460,> 100 µM (inactive)
same,GI50,NCI-H522,> 100 µM (inactive)
same,GI50,NCI/ADR-RES,> 100 µM (inactive)
same,GI50,OVCAR-3,> 100 µM (inactive)
same,GI50,OVCAR-4,> 100 µM (inactive)
same,GI50,OVCAR-5,> 100 µM (inactive)
same,GI50,OVCAR-8,> 100 µM (inactive)
same,GI50,PC-3,> 100 µM (inactive)
same,GI50,RPMI-8226,> 100 µM (inactive)
same,GI50,SF-268,> 100 µM (inactive)
same,GI50,SF-295,> 100 µM (inactive)
same,GI50,SK-MEL-28,> 100 µM (inactive)
same,GI50,SK-MEL-2,> 100 µM (inactive)
same,GI50,SK-MEL-5,> 100 µM (inactive)
same,GI50,SK-OV-3,> 100 µM (inactive)
same,GI50,SN12C,> 100 µM (inactive)
same,GI50,SNB-19,> 100 µM (inactive)
same,GI50,SNB-75,39.6 µM (inactive)
same,GI50,SR,> 100 µM (inactive)
same,GI50,SW-620,> 100 µM (inactive)
same,GI50,TK-10,> 100 µM (inactive)
same,GI50,U-251,> 100 µM (inactive)
same,GI50,UACC-257,> 100 µM (inactive)
same,GI50,UACC-62,39.7 µM (inactive)
same,GI50,UO-31,> 100 µM (inactive)
CCCSc1ccc2[nH]c(/N=C/c3ccco3)cc2c1,GI50,786-0,40.2 µM (inactive)
same,GI50,A498,34.4 µM (inactive)
same,GI50,A549,77.6 µM (inactive)
same,GI50,ACHN,49.5 µM (inactive)
same,GI50,BT-549,31 µM (inactive)
same,GI50,CAKI-1,34 µM (inactive)
same,GI50,CCRF-CEM,27.6 µM (inactive)
same,GI50,COLO 205,22 µM (inactive)
same,GI50,DU-145,63.5 µM (inactive)
same,GI50,EKVX,3.77 µM (inactive)
same,GI50,HCT-116,35.4 µM (inactive)
same,GI50,HCT-15,24.3 µM
same,GI50,HL-60,29.8 µM (inactive)
same,GI50,HOP-62,6.64 µM (inactive)
same,GI50,HOP-92,81.8 µM (inactive)
same,GI50,HT-29,14.3 µM (inactive)
same,GI50,Hs-578T,29.1 µM (inactive)
same,GI50,IGROV-1,36.5 µM (inactive)
same,GI50,KM12,49.4 µM (inactive)
same,GI50,LOX IMVI,37.7 µM (inactive)
same,GI50,M14,44.6 µM (inactive)
same,GI50,MCF7,6.34 µM (inactive)
same,GI50,MDA-MB-435,17.8 µM (inactive)
same,GI50,Malme-3M,67.9 µM (inactive)
same,GI50,NCI-H23,33.8 µM (inactive)
same,GI50,NCI-H522,22.2 µM (inactive)
same,GI50,NCI/ADR-RES,27.5 µM (inactive)
same,GI50,OVCAR-3,29.8 µM (inactive)
same,GI50,OVCAR-4,39.4 µM (inactive)
same,GI50,OVCAR-5,6.08 µM (inactive)
same,GI50,OVCAR-8,31.5 µM (inactive)
same,GI50,PC-3,43.7 µM (inactive)
same,GI50,RPMI-8226,0.184 µM (active)
same,GI50,RXF 393,22.3 µM (inactive)
same,GI50,SF-268,52.6 µM (inactive)
same,GI50,SF-295,> 100 µM (inactive)
same,GI50,SF-539,12.4 µM (inactive)
same,GI50,SK-MEL-28,41.8 µM (inactive)
same,GI50,SK-MEL-2,23.7 µM (inactive)
same,GI50,SK-MEL-5,13.7 µM (inactive)
same,GI50,SK-OV-3,30.5 µM (inactive)
same,GI50,SN12C,29.9 µM (inactive)
same,GI50,SNB-19,> 100 µM (inactive)
same,GI50,SNB-75,> 100 µM (inactive)
same,GI50,SR,1.68 µM (inactive)
same,GI50,SW-620,40.2 µM (inactive)
same,GI50,T47D,38.1 µM (inactive)
same,GI50,UACC-257,33.6 µM (inactive)
same,GI50,UACC-62,52.8 µM (inactive)
same,GI50,UO-31,41.9 µM (inactive)
CC(C)(C)OC(=O)N1CCCC1C(=O)NCCNc1ccc(NCCNC(=O)C2CCCN2C(=O)OC(C)(C)C)c2c1C(=O)c1ccccc1C2=O (stereo not drawn),GI50,786-0,14.8 µM (inactive)
same,GI50,A549,15.8 µM (inactive)
same,GI50,ACHN,15.4 µM (inactive)
same,GI50,BT-549,13 µM (inactive)
same,GI50,CAKI-1,18.5 µM (inactive)
same,GI50,CCRF-CEM,> 100 µM (inactive)
same,GI50,COLO 205,14.4 µM (inactive)
same,GI50,EKVX,27 µM (inactive)
same,GI50,HCC 2998,13 µM (inactive)
same,GI50,HCT-116,13.2 µM (inactive)
same,GI50,HCT-15,13.9 µM
same,GI50,HL-60,> 100 µM (inactive)
same,GI50,HOP-62,15.4 µM (inactive)
same,GI50,HOP-92,13.8 µM (inactive)
same,GI50,HT-29,13.7 µM (inactive)
same,GI50,Hs-578T,18.7 µM (inactive)
same,GI50,IGROV-1,13.9 µM (inactive)
same,GI50,K562,< 0.01 µM (active)
same,GI50,KM12,12.2 µM (inactive)
same,GI50,LOX IMVI,12.4 µM (inactive)
same,GI50,M14,15.8 µM (inactive)
same,GI50,MCF7,16.2 µM (inactive)
same,GI50,MDA-MB-231,13.2 µM (inactive)
same,GI50,MDA-MB-435,14.1 µM (inactive)
same,GI50,MOLT-4,9.86 µM (inactive)
same,GI50,Malme-3M,15.1 µM (inactive)
same,GI50,NCI-H226,18.5 µM (inactive)
same,GI50,NCI-H23,15.6 µM (inactive)
same,GI50,NCI-H522,13 µM (inactive)
same,GI50,NCI/ADR-RES,10.4 µM (inactive)
same,GI50,OVCAR-3,14.1 µM (inactive)
same,GI50,OVCAR-4,15 µM (inactive)
same,GI50,OVCAR-5,16.7 µM (inactive)
same,GI50,OVCAR-8,5.83 µM (inactive)
same,GI50,PC-3,11.1 µM (inactive)
same,GI50,RPMI-8226,< 0.01 µM (active)
same,GI50,SF-268,31.3 µM (inactive)
same,GI50,SF-295,18 µM (inactive)
same,GI50,SF-539,16.1 µM (inactive)
same,GI50,SK-MEL-28,14.3 µM (inactive)
same,GI50,SK-MEL-2,20.7 µM (inactive)
same,GI50,SK-MEL-5,0.112 µM (active)
same,GI50,SK-OV-3,19.7 µM (inactive)
same,GI50,SNB-19,< 0.01 µM (active)
same,GI50,SNB-75,20.4 µM (inactive)
same,GI50,SR,14.3 µM (inactive)
same,GI50,SW-620,13.8 µM (inactive)
same,GI50,TK-10,19.1 µM (inactive)
same,GI50,U-251,18.8 µM (inactive)
same,GI50,UACC-257,14.5 µM (inactive)
same,GI50,UACC-62,11.6 µM (inactive)
